Key:
[1] = molecular target: T1, Adrenergic receptor alpha-1 (Homo sapiens, UniProt P35348+P25100+P35368); assay: In vitro blocking activity against alpha adrenergic receptor, isolated from rabbit aortic strip; format: protein assay, Oryctolagus cuniculus
T1 sequence (P35348 whole entry): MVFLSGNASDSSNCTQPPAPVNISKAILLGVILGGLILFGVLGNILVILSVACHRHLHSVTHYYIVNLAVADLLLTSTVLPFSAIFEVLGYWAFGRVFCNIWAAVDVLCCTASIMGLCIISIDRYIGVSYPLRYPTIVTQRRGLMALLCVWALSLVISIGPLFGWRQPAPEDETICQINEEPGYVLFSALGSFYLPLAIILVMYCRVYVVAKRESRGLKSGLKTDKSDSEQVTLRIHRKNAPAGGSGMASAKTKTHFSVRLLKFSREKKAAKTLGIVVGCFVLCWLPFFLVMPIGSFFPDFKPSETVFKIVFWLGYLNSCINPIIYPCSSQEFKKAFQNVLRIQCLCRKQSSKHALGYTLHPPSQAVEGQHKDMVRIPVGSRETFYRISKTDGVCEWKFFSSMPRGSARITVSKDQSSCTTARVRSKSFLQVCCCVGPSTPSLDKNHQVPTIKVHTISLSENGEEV
T1 sequence (P25100 whole entry): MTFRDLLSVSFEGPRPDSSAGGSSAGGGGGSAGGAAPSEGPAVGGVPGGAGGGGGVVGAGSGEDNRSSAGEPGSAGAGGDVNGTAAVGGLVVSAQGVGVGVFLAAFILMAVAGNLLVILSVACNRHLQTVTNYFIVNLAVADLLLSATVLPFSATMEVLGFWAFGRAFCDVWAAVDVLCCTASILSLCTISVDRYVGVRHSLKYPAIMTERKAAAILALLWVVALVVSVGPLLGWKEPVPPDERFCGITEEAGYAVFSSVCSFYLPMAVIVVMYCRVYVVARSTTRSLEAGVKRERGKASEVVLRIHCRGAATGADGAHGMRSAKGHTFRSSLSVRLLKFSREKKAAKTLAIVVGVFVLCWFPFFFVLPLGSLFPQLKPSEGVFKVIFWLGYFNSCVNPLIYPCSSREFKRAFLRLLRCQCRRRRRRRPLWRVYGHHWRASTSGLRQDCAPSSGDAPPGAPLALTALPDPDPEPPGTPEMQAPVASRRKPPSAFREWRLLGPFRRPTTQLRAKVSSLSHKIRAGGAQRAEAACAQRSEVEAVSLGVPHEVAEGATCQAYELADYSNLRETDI
T1 sequence (P35368 whole entry): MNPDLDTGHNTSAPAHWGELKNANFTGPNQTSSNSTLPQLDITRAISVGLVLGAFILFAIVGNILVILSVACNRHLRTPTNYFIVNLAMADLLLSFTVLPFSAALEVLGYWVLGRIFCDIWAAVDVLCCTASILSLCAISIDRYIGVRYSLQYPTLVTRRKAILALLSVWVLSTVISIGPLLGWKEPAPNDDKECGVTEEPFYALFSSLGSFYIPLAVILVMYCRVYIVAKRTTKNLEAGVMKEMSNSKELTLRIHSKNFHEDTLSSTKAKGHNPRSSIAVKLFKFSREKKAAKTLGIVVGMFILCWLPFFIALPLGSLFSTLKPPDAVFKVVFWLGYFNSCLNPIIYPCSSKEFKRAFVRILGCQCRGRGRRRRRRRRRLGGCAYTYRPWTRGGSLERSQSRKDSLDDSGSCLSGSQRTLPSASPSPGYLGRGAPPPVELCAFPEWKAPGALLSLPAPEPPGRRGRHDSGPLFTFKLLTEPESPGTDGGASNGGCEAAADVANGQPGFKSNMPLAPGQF

[2] = system: Rattus norvegicus; assay: Antihypertensive activity in spontaneously hypertensive rats(SHR) at 50 mg/kg peroral dose after 4 h, expressed as decrease in systolic blood pressure; format: functional, Artery; conditions: route oral
[3] = system: Rattus norvegicus; assay: Antihypertensive activity in spontaneously hypertensive rats(SHR) at 50 mg/kg peroral dose after 1 h, expressed as decrease in systolic blood pressure; format: functional, Artery; conditions: route oral
[4] = organism: Cavia porcellus; assay: spasmolytic activity in isolated guinea pig ileum preparation;- log KB; (Bacl2); format: functional, organism-based; conditions: read-out: pA2 (converted)
[5] = molecular target: Adrenergic receptor beta (Homo sapiens, UniProt P08588+P07550+P13945); assay: In vitro blocking activity against beta adrenergic receptor, isolated from guinea pig atria; format: protein assay
[6] = organism: Oryctolagus cuniculus; assay: Ratio of pA2 for beta-adrenergic receptor to that of alpha-adrenergic receptor

Row | Structure (SMILES) | pA2 [1] | BP decrease [2] | BP decrease [3] | Kb [4] | pA2 [5] | Ratio [6]
1 | COC(=O)c1cc(C(O)CNC(C)(C)CCc2ccc3c(c2)OCO3)ccc1O.Cl (centres undefined) | < 5 | 39 mmHg | 41 mmHg | 2.63 µM | 6.55 | 
2 | Cc1ccccc1N1CCN(CC(O)c2ccc(O)c(C(=O)NCC(C)(C)C)c2)CC1.Cl (centres undefined) | 7.21 | 32 mmHg | 41 mmHg | 0.224 µM | 6.33 | 0.1
3 | Cl.NC(=O)c1cc(C(O)CN2CCN(c3cccc(C(F)(F)F)c3)CC2)ccc1O (centres undefined) | 6.33 | 18 mmHg | 1 mmHg | 1.82 µM | 6.9 | 3.7
4 | CC(CCc1ccccc1)NC(C)C(O)c1ccc(O)cc1.Cl (centres undefined) [NYLIDRIN HYDROCHLORIDE] |  | 51 mmHg | 54 mmHg |  |  | 
5 | COC(=O)c1cc(C(O)CNCC2COc3ccccc3O2)ccc1O.Cl (centres undefined) | 6.21 | 31 mmHg | 46 mmHg | 4.07 µM | 5.92 | 0.5
6 | CC(CCc1ccc2c(c1)OCO2)NCC(O)c1ccc(O)c(C(=O)O)c1.Cl (centres undefined) | 5.2 | 5 mmHg | 6 mmHg | > 100 µM | 5.1 | 0.8
7 | Cl.NC(=O)c1cc(C(O)CN2CCN(c3ccccc3)CC2)ccc1O (centres undefined) | 7.04 | 9 mmHg | 7 mmHg |  | 4.19 | 
8 | COc1ccc(N2CCN(CC(O)c3ccc(O)c(C(N)=O)c3)CC2)cc1.Cl.Cl (centres undefined) | 6.13 | 7 mmHg | 10 mmHg | > 52.5 µM | 5.84 | 0.5
9 | Cl.NC(=O)c1cc(C(O)CN2CCC(n3c(O)nc4ccccc43)CC2)ccc1O (centres undefined) | 6.7 | 15 mmHg | 6 mmHg | > 61.7 µM | 5.45 | 0.06
10 | NC(=O)c1cc(C(O)CN2CCN(c3ccc(Cl)cc3)CC2)ccc1O (centres undefined) | 6.87 | 56 mmHg | 49 mmHg | 26.3 µM | 6.17 | 0.2
11 | COC(=O)c1cc(C(O)CN2CCN(c3ccccc3OC)CC2)ccc1OC.Cl (centres undefined) | 7 | 35 mmHg | 37 mmHg | 34.7 µM | 6.41 | 0.3
12 | COc1ccccc1N1CCN(CC(O)c2ccc(O)c(C(N)=O)c2)CC1.Cl (centres undefined) | 7.42 | 35 mmHg | 45 mmHg | 13.5 µM | 6.44 | 0.1
13 | COc1ccc(C(O)CN2CCN(c3ccccc3)CC2)cc1C(N)=O.Cl (centres undefined) | 6.54 | 25 mmHg | 38 mmHg | 64.6 µM | < 5 | 
14 | CC(C)NCC(O)COc1cccc2ccccc12.Cl (centres undefined) [PROPRANOLOL HYDROCHLORIDE] |  | 46 mmHg | 28 mmHg |  |  | 
15 | Cc1ccccc1N1CCN(CC(O)c2ccc(O)c(C3N=NN=N3)c2)CC1 (centres undefined) | 7.56 | 47 mmHg | 48 mmHg | > 100 µM | 6.14 | 0.04
16 | CNC(=O)c1cc(C(O)CN2CCN(c3ccc(OC)cc3)CC2)ccc1O.Cl (centres undefined) | 5.47 | 14 mmHg | 20 mmHg | 15.1 µM | 5.17 | 0.2
17 | COc1ccc(C(O)CN2CCN(c3ccccc3OC)CC2)cc1C(N)=O.Cl (centres undefined) | 6.8 | 46 mmHg | 56 mmHg | 33.1 µM | 5.41 | 0.04
18 | CC(CCc1ccc2c(c1)OCO2)NCC(O)c1ccc(O)c(C(=O)N(C)C)c1.Cl (centres undefined) | 5.46 | 22 mmHg | 24 mmHg | 8.71 µM | 7.21 | 56
19 | COC(=O)c1cc(C(O)CNC(C)CCc2ccc3c(c2)OCO3)ccc1OC.Cl (centres undefined) | 5.56 | 22 mmHg | 44 mmHg | 2.75 µM | 8.1 | 372
20 | COC(=O)c1cc(C(O)CN2CCN(c3ccccc3C)CC2)ccc1O.Cl (centres undefined) | 7.45 | 6 mmHg | 5 mmHg | 0.871 µM | 6.79 | 0.2
21 | NC(=O)c1cc(C(O)CNCC2COc3ccccc3O2)ccc1O (centres undefined) | 6.2 | 18 mmHg | 24 mmHg | 26.9 µM | 5.84 | 0.4
22 | NC(=O)c1cc(C(O)CN2CCN(C(=O)c3ccco3)CC2)ccc1O (centres undefined) | < 5 | 28 mmHg | 30 mmHg | > 100 µM | < 5 | 
23 | CCNC(=O)c1cc(C(O)CN2CCC(n3c(O)nc4ccccc43)CC2)ccc1O.Cl (centres undefined) | 6.63 | 51 mmHg | 22 mmHg | 6.92 µM | < 5.38 | < 0.06
24 | CNC(=O)c1cc(C(O)CN2CCN(c3ccccc3OC)CC2)ccc1O.Cl (centres undefined) | 7.95 | 52 mmHg | 44 mmHg | 9.55 µM |  | 
25 | COC(=O)c1cc(C(O)CN2CCN(C(=O)c3ccco3)CC2)ccc1O.Cl (centres undefined) | < 5 | 15 mmHg | 37 mmHg | 17.4 µM | < 5 | 

Source: ChEMBL document CHEMBL1121801, “Salicylamide derivatives related to medroxalol with alpha- and beta-adrenergic antagonist and antihypertension activity” (J Med Chem, 1981)
